For one assay, the system named is C. neoformans MRL862. As to conditions: cited from earlier work. How it is done:
First, the MICs of the peptides and commonly used antifungal drugs were assessed on their own. A full accounting of MICs of intermediate SAR screen peptides is reported in Supporting Information, Table S1.

In assay [1] the test system is C. neoformans in macrophage J774 cells. The assay can be described thus: Macrophage killing assay. Format: cell-based, Cryptococcus neoformans / murine macrophage. As to conditions: yeast pretreated at sub-MIC for 30 min; 2 or 4 h coincubation. How it is done: Macrophage killing assay was carried out in accordance with previously reported protocols.[23],[69] After the cell line was activated from −80 °C stock and passaged several times, the cells were washed and resuspended in fresh DMEM + FBS at 1 × 10^5 cell/mL. Each well in a 3 column by 6 row grid in a 48-well plate was charged with 0.5 mL of cell suspension, approximately 50,000 cell/well. Macrophages were grown ON at 37 °C in a tissue culture incubator and were further activated with LPS. Yeast cells were grown ON using standard conditions. Fungal cells were washed twice with H2O, resuspended in PBS, and adjusted to 2.4 × 10^6 cfu/mL in 5 mL RPMI. […] Treated cells were transferred to a 1.5 mL Eppendorf tube, pelleted, and resuspended in 100 μL of 20% mouse compliment in PBS for opsonization. Prior to inoculating the wells with yeast cells for coincubation, the opsonized cells were diluted by an additional 20% with PBS. Each well was inoculated with 10 μL of cell suspension. Cocultures were prepared using three technical replicates. The 48-well plates were inoculated about 30 min apart to allow time to process each plate during the experiment. After 2 h of coincubation, each well was washed three times with 200 μL of warm DMEM + penstrep. […]

In assay [2] the test system is C. neoformans with macrophage J774 cells. The assay can be described thus: Phagocytosis assay. Format: cell-based, Cryptococcus neoformans / murine macrophage. As to conditions: sub-MIC peptide-treated yeast cells coincubated with macrophages for 2 h. The procedure:
The J774A. I macrophage-like cell line (ATCC# TIB-67) was grown in DMEM supplemented with 10% FBS, 5% penstrep, and L-glutamine (1×), and passed 2–3 times per week. The cells were never used after 5 passages. Phagocytosis assay was performed in a 48-well plate using J774 cells (5 × 10^4) in 0.5 mL of fresh DMEM were added to each well and incubated at 37 °C, 5% CO2. To activate the macrophages, 50 units/mL interferon γ (IFN-γ; Invitrogen) and 1 μg/mL lipopolysaccharide (LPS; Sigma) were added to each well. Yeast cells were adjusted to 2.4 × 10^6 cfu/mL in RPMI1640. One mL of cell suspension was aliquoted into a 12 mL vented culture tube. The peptide was added to each tube, and the cells were incubated for 30 min at 30 °C, 225 rpm. The cells were pelleted and resuspended in 100 μL of 20% mouse compliment in PBS. The cells were opsonized at room temperature for 30 min. After opsonization, 10 μL of cell suspension was added to each well. Yeast cells were coincubated with macrophages for 2 h at 37 °C in 5% CO2 in technical triplicates per condition. After coincubation, the supernatant was removed, and the wells were washed 3 times with 200 μL DMEM + penstrep, and then fixed with 200 μL ice cold methanol for 30 min. […] The images were quantified using phagocytosis rate, % phagocytosis, and phagocytic index, eqs 3–5, between 200 and 300 macrophages were counted per technical replicate [drawing 3] […]

The next assay relates to C. neoformans H99. As to conditions: Cn wild-type, previous study; cited from earlier work.
The test system of another assay is C. neoformans cdc50Δ. As to conditions: Cdc50 deleted, previous study; cited from earlier work. The procedure:
Our previous studies have identified that the Cn cdc50Δ mutant was highly susceptible to CAS compared to the wild-type.[23] The minimum inhibitory concentration (MIC) of CAS was reduced 4-fold from 16 to 4 μg/mL when Cdc50 was deleted. The surprising observation that loss of Cdc50 sensitized Cryptococcus to CAS led to an obvious question: why did a mutation to a seemingly disparate cellular system-membrane homeostasis proteins have such a dramatic effect on the susceptibility to cell wall biosynthesis inhibitors? It was subsequently discovered that Cdc50 in C. neoformans is unique because it h ...

In brackets after ≈: the same amount, converted by molar mass. Square brackets hold non-standard residues; d marks the D form. Peptide text beside a SMILES is read from it. * marks the point of attachment. Myristoyl = CCCCCCCCCCCCCC(=O)*; Orn = NCCC[C@H](N)C(=O)O

One may read the MIC as the lowest concentration that inhibits growth of the organism.

Turning to `OC(Cn1cncn1)(Cn1cncn1)c1ccc(F)cc1F` [FLC, fluconazole], the “MIC, reported value” in the assay with C. neoformans MRL862 was 128 µg/mL (≈ 418 µM).

On to `CCCCCCCCCCCCCC(=O)N[C@@H](Cc1c[nH]c2ccccc12)C(=O)NCC(=O)NCC(=O)N[C@H](C(=O)N[C@@H](CCCN)C(=O)N[C@@H](CCCN)C(=O)N[C@@H](CC(N)=O)C(=O)N[C@@H](Cc1ccc(O)cc1)C(=O)N[C@@H](C)C(N)=O)[C@@H](C)CC` [KKOO-NH2] (Myristoyl-WGGI[Orn][Orn]NYA-NH2), for which the “fungal proliferation inside macrophages vs untreated control” value in assay [1] is “No statistically significant difference”. Also, the “phagocytic index or phagocytosis rate vs control” value in assay [2] is recorded as “No statistically significant differences”.

On to `CC[C@H](C)C[C@H](C)CCCCCCCCC(=O)N[C@H]1C[C@@H](O)[C@@H](NCCN)NC(=O)[C@@H]2[C@@H](O)CCN2C(=O)[C@H]([C@H](O)CCN)NC(=O)[C@H]([C@H](O)[C@@H](O)c2ccc(O)cc2)NC(=O)[C@@H]2C[C@@H](O)CN2C(=O)[C@H]([C@@H](C)O)NC1=O` [CAS, caspofungin], for which the MIC in the assay with C. neoformans H99 was 16 µg/mL (≈ 14.6 µM); in the assay on C. neoformans cdc50Δ, 4 µg/mL (≈ 3.66 µM).

Source of the values: article PMC11555678, “Improved Broad Spectrum Antifungal Drug Synergies with Cryptomycin, a Cdc50-Inspired Antifungal Peptide” (ACS Infectious Diseases, 2024).
